The source of these data is ChEMBL document CHEMBL5154644, “Design, Synthesis, and Structure-Activity Relationship Optimization of Pyrazolopyrimidine Amide Inhibitors of Phosphoinositide 3-Kinase γ (PI3Kγ)” (J Med Chem, 2022).

In data set [1] the target is Cytochrome P450 3A4 (Homo sapiens, UniProt P08684). Kind of data set: Time dependent inhibition of CYP3A4 in human liver microsomes at 40 uM using midazolam as substrate measured after 5 to 20 mins in presence of NADPH by LC/MS/MS analysis. The data set is classed as ADME, Microsome.
Sequence of Cytochrome P450 3A4 (P08684 whole entry, canonical isoform): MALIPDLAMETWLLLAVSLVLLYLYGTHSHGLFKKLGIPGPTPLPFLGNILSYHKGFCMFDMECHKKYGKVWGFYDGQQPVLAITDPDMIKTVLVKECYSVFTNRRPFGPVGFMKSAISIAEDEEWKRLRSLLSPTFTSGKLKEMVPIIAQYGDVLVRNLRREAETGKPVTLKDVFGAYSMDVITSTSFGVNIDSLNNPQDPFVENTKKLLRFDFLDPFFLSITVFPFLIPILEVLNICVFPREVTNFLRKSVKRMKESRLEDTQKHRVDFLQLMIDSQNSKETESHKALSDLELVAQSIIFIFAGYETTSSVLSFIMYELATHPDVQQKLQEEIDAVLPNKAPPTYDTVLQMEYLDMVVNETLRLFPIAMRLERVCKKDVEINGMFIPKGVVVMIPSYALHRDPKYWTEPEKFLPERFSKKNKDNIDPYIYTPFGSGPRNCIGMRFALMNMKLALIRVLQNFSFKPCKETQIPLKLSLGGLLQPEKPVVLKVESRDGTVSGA
The target of data set [2] is Phosphatidylinositol 4,5-bisphosphate 3-kinase catalytic subunit gamma isoform (Homo sapiens, UniProt P48736). Put plainly: Inhibition of PI3Kgamma (unknown origin) at 10 uM using PIP2 as substrate preincubated for 60 mins followed by substrate addition and measured after 45 mins in presence of ATP by TR-FRET analysis.
Sequence of Phosphatidylinositol 4,5-bisphosphate 3-kinase catalytic subunit gamma isoform (P48736 whole entry, canonical isoform): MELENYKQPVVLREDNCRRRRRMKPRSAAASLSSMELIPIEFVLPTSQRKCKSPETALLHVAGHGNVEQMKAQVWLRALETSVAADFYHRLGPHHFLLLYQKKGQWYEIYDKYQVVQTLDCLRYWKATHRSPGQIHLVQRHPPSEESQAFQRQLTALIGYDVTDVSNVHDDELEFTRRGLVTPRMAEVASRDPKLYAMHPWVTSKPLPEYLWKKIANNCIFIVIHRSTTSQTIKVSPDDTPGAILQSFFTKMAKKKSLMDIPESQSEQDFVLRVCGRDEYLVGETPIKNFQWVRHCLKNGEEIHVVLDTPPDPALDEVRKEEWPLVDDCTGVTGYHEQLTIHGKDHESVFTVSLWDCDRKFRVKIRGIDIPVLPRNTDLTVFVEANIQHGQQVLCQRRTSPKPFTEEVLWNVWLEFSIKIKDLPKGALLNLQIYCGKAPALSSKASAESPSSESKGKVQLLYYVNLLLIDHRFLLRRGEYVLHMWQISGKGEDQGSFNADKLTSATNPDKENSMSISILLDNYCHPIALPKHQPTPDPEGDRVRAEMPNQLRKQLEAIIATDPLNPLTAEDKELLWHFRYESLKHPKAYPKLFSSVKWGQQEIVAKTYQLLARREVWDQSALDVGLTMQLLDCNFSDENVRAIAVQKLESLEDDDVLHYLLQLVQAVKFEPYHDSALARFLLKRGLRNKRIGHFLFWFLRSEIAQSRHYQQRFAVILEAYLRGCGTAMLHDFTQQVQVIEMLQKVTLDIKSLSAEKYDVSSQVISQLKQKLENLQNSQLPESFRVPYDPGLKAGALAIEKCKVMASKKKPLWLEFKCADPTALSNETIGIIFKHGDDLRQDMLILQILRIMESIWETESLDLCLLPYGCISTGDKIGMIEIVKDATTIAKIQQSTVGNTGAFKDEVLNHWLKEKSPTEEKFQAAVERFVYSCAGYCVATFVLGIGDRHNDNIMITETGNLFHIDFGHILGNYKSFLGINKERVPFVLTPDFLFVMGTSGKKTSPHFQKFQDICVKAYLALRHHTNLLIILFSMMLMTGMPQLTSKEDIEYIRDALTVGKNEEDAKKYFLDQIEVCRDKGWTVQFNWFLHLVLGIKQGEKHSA
For data set [3], the target named is Cytochrome P450 2D6 (Homo sapiens, UniProt P10635). Kind of data set: Time dependent inhibition of CYP2D6 in human liver microsomes at 40 uM using dextromethorphan as substrate measured after 5 to 20 mins in presence of NADPH by LC/MS/MS analysis. Format: ADME, Microsome.
Sequence of Cytochrome P450 2D6 (P10635 whole entry): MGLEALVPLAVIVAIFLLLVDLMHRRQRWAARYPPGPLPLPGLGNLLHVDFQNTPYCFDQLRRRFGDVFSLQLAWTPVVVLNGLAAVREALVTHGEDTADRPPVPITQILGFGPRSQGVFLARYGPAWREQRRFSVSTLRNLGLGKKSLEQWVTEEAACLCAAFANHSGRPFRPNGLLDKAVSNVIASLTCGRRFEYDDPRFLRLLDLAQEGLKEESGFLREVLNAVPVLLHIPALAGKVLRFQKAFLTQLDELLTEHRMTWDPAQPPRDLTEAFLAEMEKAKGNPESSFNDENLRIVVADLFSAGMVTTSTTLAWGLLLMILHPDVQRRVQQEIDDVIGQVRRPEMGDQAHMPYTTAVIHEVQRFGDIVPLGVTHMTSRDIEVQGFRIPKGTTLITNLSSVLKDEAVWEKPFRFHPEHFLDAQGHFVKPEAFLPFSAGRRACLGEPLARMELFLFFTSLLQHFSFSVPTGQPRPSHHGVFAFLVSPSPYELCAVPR
Data set [4] addresses Cytochrome P450 2C19 (Homo sapiens, UniProt P33261). Put plainly: Time dependent inhibition of CYP2C19 in human liver microsomes at 40 uM using (S)-mephenytoin as substrate measured after 5 to 20 mins in presence of NADPH by LC/MS/MS analysis. Format: ADME, Microsome.
Data set [5] concerns the target Voltage-gated inwardly rectifying potassium channel KCNH2 (Homo sapiens, UniProt Q12809). Put plainly: Inhibition of human ERG by patch clamp assay. The data set is classed as toxicity.
Data set [6] in a line: Apparent permeability of the compound across apical to basolateral side in human Caco-2 cells. Format: toxicity, cell-based. Particulars: in vivo, 100 mg/kg, 168 h, time 7 day.

Sequence of Voltage-gated inwardly rectifying potassium channel KCNH2 (Q12809 whole entry): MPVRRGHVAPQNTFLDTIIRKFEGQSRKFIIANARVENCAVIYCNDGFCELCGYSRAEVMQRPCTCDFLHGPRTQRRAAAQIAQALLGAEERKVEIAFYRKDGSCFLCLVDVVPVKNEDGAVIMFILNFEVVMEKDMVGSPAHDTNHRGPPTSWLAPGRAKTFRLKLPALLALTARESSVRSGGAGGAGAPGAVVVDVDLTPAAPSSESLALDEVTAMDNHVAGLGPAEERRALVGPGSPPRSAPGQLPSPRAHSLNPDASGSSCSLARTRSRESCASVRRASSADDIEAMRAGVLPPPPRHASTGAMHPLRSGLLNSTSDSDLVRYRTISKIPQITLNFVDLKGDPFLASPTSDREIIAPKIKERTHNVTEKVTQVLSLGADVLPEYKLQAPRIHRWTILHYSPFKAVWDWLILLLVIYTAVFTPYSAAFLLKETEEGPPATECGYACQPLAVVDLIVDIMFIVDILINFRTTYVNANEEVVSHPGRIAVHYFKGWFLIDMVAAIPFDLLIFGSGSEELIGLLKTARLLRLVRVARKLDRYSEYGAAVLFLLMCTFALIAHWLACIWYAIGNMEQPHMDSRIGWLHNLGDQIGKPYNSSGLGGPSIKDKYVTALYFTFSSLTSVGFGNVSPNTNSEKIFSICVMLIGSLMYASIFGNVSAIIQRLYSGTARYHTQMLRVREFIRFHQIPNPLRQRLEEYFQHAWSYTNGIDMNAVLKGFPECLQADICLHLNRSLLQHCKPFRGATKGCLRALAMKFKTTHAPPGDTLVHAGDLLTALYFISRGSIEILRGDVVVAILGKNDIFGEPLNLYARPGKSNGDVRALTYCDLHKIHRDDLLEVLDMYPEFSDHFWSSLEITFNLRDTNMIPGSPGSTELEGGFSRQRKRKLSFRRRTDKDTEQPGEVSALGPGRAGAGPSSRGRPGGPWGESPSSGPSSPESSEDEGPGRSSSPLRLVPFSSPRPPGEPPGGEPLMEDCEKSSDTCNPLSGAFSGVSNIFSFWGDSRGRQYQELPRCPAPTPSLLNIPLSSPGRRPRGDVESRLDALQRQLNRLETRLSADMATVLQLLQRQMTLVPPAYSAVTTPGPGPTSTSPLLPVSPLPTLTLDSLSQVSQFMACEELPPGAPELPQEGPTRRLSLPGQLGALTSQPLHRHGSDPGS
Sequence of Cytochrome P450 2C19 (P33261 whole entry): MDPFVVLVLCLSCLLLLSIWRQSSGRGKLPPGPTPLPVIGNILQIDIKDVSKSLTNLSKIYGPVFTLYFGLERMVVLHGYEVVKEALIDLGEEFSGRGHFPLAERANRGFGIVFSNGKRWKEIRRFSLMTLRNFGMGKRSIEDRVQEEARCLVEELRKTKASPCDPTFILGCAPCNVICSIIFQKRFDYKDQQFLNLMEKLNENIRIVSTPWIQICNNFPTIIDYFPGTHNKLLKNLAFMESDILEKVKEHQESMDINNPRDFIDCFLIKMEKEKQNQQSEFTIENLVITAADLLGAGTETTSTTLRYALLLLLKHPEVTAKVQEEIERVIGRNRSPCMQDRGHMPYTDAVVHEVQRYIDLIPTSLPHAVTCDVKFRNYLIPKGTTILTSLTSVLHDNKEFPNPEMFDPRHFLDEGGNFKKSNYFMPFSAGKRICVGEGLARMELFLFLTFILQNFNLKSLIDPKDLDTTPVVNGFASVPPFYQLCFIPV

As for `C[C@@H](C1CC1)N1Cc2cc(-c3ccn4nc(N)c(C(=O)N[C@H]5CC[C@@](C)(O)CC5)c4n3)cc(OC(F)F)c2C1=O`, the IC50 in data set [1] was > 20 µM; in data set [3], > 20 µM; in data set [4], > 20 µM; in data set [5], > 10 µM. Besides, the Ki in data set [2] worked out at 0.0007 µM. In addition, the Activity result in data set [6] is reported as “Non-Toxic”.
